The source of these data is article PMC7179259, “Safety, Tolerability, Pharmacokinetics, and Antimalarial Activity of the Novel Plasmodium Phosphatidylinositol 4-Kinase Inhibitor MMV390048 in Healthy Volunteers” (Antimicrobial Agents and Chemotherapy, 2020).

Data set [1] is described as follows: Stability in human plasma and whole blood (bioanalytical validation). In kind it is in vitro ADME. The source says: page 28: Determination of MMV390048 from 50 µ L human plasma by LC -MS/MS A method was validated for the quantification of MMV390048 in human plasma, and consisted of a protein precipitation extraction, followed by high performance liquid chromatography with MS/MS detection. MMV390048- d3 was used as the internal standard. Analyte mean extraction yield was approximately 106.5 % (CV% = 6.2). The extraction procedure was followed by liquid chromatographic separation using a Waters Atlantis T3 3 μm, 100 x 2.1 mm analytical column. An isocratic mobile phase containing water:acetonitrile (25:75 [v/v]) was used at a flow-rate of 300 μL/min. The retention times for MMV390048 and MMV390048- d3 were 1.16 min and 1.16 min, respectively. An AB Sciex API 4000 mass spectrometer at unit resolution in the multiple reaction monitoring mode was used to monitor the transition of the protonated precursor ions, 394.145 m/z and 397.148 m/z, to the product ions, 297.0 m/z and 297.0 m/z, for MMV390048 and the internal standard, respectively. Electro -spray ionisation was used for ion production. Accuracy and precision were assessed over three consecutive, independent runs. The calibration curve fits a quadratic (weighted by 1/x) regressions for MMV390048 over the ranges 0.500 –2000 ng/mL, based on peak area ratios. The assay was successfully cross- validated on a second/back- up API 4000 instrument. […] Stock solutions of MMV390048 in dimethylsulfoxide was stable for 67 days when stored at -80°C and for 24 hours when stored at room temperature, 4°C and - 20°C. […] Samples with haemolysis greater than 1% were assayed in duplicate to confirm results.

The test system of data set [2] is healthy subjects inoculated with blood-stage P. falciparum. Briefly: Induced blood-stage malaria (IBSM) study: safety. The class given is in vivo, human. As to the method: The second study was conducted at Q-Pharm (Brisbane, Australia) from 27 October 2014 to 19 December 2014. This was an IBSM, phase 1b, single-center, open-label study, in which a single dose of MMV390048 was administered to subjects previously inoculated with blood-stage P. falciparum. This study was planned to consist of two dose cohorts; however, a second cohort was not enrolled due to the high variability in pharmacokinetic profiles observed in the first cohort and in the first-in-human study (see Results). The IBSM study commenced when the first two dose cohorts of the first-in-human study had been completed. MMV390048 was administered in the first-in-human and IBSM studies in a powder-in-bottle formulation.
(ii) IBSM study. The dose of MMV390048 chosen (20 mg) was based on the pharmacokinetic, safety, and tolerability data available from the first-in-human study at the time the IBSM study commenced (when 5- and 20-mg-dose cohorts of the first-in-human study had been completed). This dose was below the estimated single dose required to achieve complete cure calculated from preclinical studies (80 to 100 mg) since recrudescence allows for characterization of the pharmacokinetic/pharmacodynamic relationship between MMV390048 and P. falciparum parasitemia. Subjects were inoculated intravenously on day 0 with erythrocytes infected with ∼1,800 viable chloroquine-sensitive P. falciparum 3D7 parasites ([17]). Fasted (≥8 h) subjects were dosed with MMV390048 when they reached the parasitemia threshold for treatment (∼1,000 parasites ml^−1) and were followed up until the end-of-study visit on day 28.
Safety endpoints were the incidence, severity, and relationship to the investigational product (and inoculum for the IBSM study) of observed and self-reported adverse events (AEs), and changes from baseline in physical examination, vital signs, standard electrocardiograms (ECGs), continuous ECGs (first-in-human study only), and laboratory evaluation (hematology, coagulation parameters, hemolysis panel, clinical chemistry, and urinalysis) findings. […] AE severity was evaluated according to the Common Terminology Criteria for Adverse Events version 4.03 ([18]) and the World Health Organization recommendations for grading acute and subacute toxic effects ([19]).

The next data set has as its system P. falciparum. Further details: method as in PMID 28446690. Particulars: humanized SCID mice infected with P. falciparum; cited from earlier work.
Data set [3] can be described thus: Stability of stock solutions in dimethylsulfoxide. The class given is physicochemical. From the text:
page 28: Determination of MMV390048 from 50 µ L human plasma by LC -MS/MS A method was validated for the quantification of MMV390048 in human plasma, and consisted of a protein precipitation extraction, followed by high performance liquid chromatography with MS/MS detection. MMV390048- d3 was used as the internal standard. Analyte mean extraction yield was approximately 106.5 % (CV% = 6.2). The extraction procedure was followed by liquid chromatographic separation using a Waters Atlantis T3 3 μm, 100 x 2.1 mm analytical column. An isocratic mobile phase containing water:acetonitrile (25:75 [v/v]) was used at a flow-rate of 300 μL/min. The retention times for MMV390048 and MMV390048- d3 were 1.16 min and 1.16 min, respectively. An AB Sciex API 4000 mass spectrometer at unit resolution in the multiple reaction monitoring mode was used to monitor the transition of the protonated precursor ions, 394.145 m/z and 397.148 m/z, to the product ions, 297.0 m/z and 297.0 m/z, for MMV390048 and the internal standard, respectively. Electro -spray ionisation was used for ion production. Accuracy and precision were assessed over three consecutive, independent runs. The calibration curve fits a quadratic (weighted by 1/x) regressions for MMV390048 over the ranges 0.500 –2000 ng/mL, based on peak area ratios. The assay was successfully cross- validated on a second/back- up API 4000 instrument. […]

On to `CS(=O)(=O)c1ccc(-c2cnc(N)c(-c3ccc(C(F)(F)F)nc3)c2)cc1` [MMV390048], for which, in data set [1] (freeze-thaw cycles), the “stable in human plasma when subjected to freeze-thaw cycles” value was found to be 3. The “stable in whole blood for up to” value in data set [1] (on ice) came to 1 h. For the same molecule, in data set [1] (room temperature), the “stable in human plasma for” value stood at 6 h. Besides, in data set [1] (stored at approximately -80°C), the “stable in human plasma for up to” value was determined as 79 days. Besides, the “AEs deemed related to malaria” value in data set [2] (20 mg) was 81.3%. In data set [2] (20 mg (n = 6)), the “No. (%) of subjects with adverse events: All AEs, Treatment related” value was found to be 0; the “No. (%) of subjects with adverse events: Grade 2 AEs” value is recorded as 3 (50); the “No. (%) of subjects with adverse events: Grade 2 AEs, Treatment related” value is listed as 0; the “No. (%) of subjects with adverse events: Grade 3 AEs” value came to 0. Besides, in data set [2] (20 mg (n = 6)), the “No. (%) of subjects with adverse events: SAEs” value amounted to 0; the “No. of adverse events: All AEs” value amounted to 32; the “No. of adverse events: Grade 2 AEs” value is 9; the “No. of adverse events: Grade 2 AEs, Treatment related” value is recorded as 0. In addition, in data set [2] (20 mg (n = 6)), the “No. of adverse events: Grade 3 AEs” value is on record as 0 and the “No. of adverse events: SAEs” value is on record as 0. The “AEs mild in severity” value in data set [2] (20 mg, 23/32 AEs) is 71.9%. Moreover, the “headache (most common AE), cases” value in data set [2] (20 mg, in 4 subjects) turned out to be 7. For the same molecule, in the data set with P. falciparum, the “effective concentration to achieve 90% of the maximal kill rate (EC90)” value was 0.16 mg/L. In addition, the “stock solution in dimethylsulfoxide stable for” value in data set [3] (room temperature, 4°C and -20°C) was found to be 24 h. For the same molecule, in data set [3] (stored at -80°C), the “stock solution in dimethylsulfoxide stable for” value stood at 1610 h.
